Here are results for 36 compounds from patent publication US11505548B2, “Heterocyclic compounds and their use for treatment of helminthic infections and diseases” (Celgene Corporation, priority 2019, dated 2022).

The test system of the assay is microfilariae of Dirofilaria immitis. Put plainly: Dirofilaria immitis, Microfilaria (DiMF) Assay. Type of assay: cell-based. The note with it: read-out: D. immitis activity level (IC50 or MED). As to the method:
Heartworm Screen Dirofilaria immitis (D. immitis)
Dirofilaria immitis, Microfilaria (DiMF) Assay.
Compounds were dissolved and serially diluted in DMSO. Aliquots were spotted to the empty wells of assay plates. Media and microfilariae of Dirofilaria immitis were added to each well to dilute the test compounds to the desired concentrations. Assay plates were incubated for approximately 72 hours, and the larvae in each well were observed microscopically for drug effect. Microfilariae in each well were assessed subjectively for survival or paralysis, and results were reported as Minimum Effective Dose (MED).
Active and selective (DiL4 vs. DiMF potency) example compounds were subsequently evaluated in heartworm positive dog studies to correlate the in vitro selectivity profile with in vivo effects on circulating microfilariae.

What is called IC50 is the concentration that gives 50% inhibition. On to `CC(C)Oc1cnc(-c2nsc(Nc3ncc(C(C)C)cc3C(F)(F)F)n2)cc1C(=O)N(C)C` [Compound 219, 5-isopropoxy-2-(5-(5-isopropyl-3-(trifluoromethyl)pyridin-2-ylamino)-1,2,4-thiadiazol-3-yl)-N,N-dimethyliso-nicotinamide], for which the IC50 lay in the range of 0.2 to 0.5 µM.

In the case of `COc1cccnc1Nc1nc(-c2ccc(OC3CC3)cn2)ns1` [Compound 80, 3-(5-cycloprop-oxypyridin-2-yl)-N-(3-methoxypyridin-2-yl)-1,2,4-thiadiazol-5-amine], the IC50 fell in the range of 0.5 to 5 µM.

Regarding `CC(C)Oc1ccc(-c2n[nH]c(Nc3ncccc3C(F)(F)F)n2)nc1` [Compound 70, N-(3-(5-isopropoxy-pyridin-2-yl)-1H-1,2,4-triazol-5-yl)-3-(trifluoromethyl) pyridin-2-amine], the IC50 is 0.5 to 5 µM.

In the case of `Cc1cccnc1Nc1nc(-c2cc(OC(C)C)c(C(F)(F)F)cn2)ns1` [Compound 152, 3-(4-isoprop-oxy-5-(trifluoromethyl)pyridin-2-yl)-N-(3-methylpyridin-2-yl)-1,2,4-thia-diazol-5-amine], the IC50 fell in the range of 0.2 to 0.5 µM.

`CC(C)Oc1cnc(-c2nsc(Nc3ncccc3C(F)(F)F)n2)cc1C(N)=O` [Compound 220, 5-isopropoxy-2-(5-(3-(trifluoromethyl)pyridin-2-ylamino)-1,2,4-thiadiazol-3-yl)isonico-tinamide]: the IC50 lay within 0.5 to 5 µM.

Consider `CN(C)c1cccnc1Nc1nc(-c2ccc(OC3CC3)cn2)ns1` [Compound 78, N2-(3-(5-cyclopropoxy-pyridin-2-yl)-1,2,4-thiadiazol-5-yl)-N3,N3-dimethyl-pyridine-2,3-diamine], for which the IC50 fell in the range of 0.5 to 5 µM.

`Cc1ccnc(-c2nsc(Nc3ncccc3F)n2)c1` [Compound 12, N-(3-fluoropyridin-2-yl)-3-(4-methylpyridin-2-yl)-1,2,4-thiadiazol-5-amine]: the IC50 was in the range of 0.2 to 0.5 µM.

As for `CC(C)Oc1ccc(-c2nsc(Nc3ncccc3N(C)C(=O)C3CCC3)n2)nc1` [Compound 171, N-(2-(3-(5-isopropoxy-pyridin-2-yl)-1,2,4-thiadiazol-5-ylamino)pyridin-3-yl)-N-methylcyclo-butane-carboxamide], the IC50 lay in the range of 0.5 to 5 µM.

With `CC(C)c1ccnc(-c2nsc(Nc3ncccc3C(F)(F)F)n2)c1` [Compound 67, 3-(4-isopropyl-pyridin-2-yl)-N-(3-(trifluoromethyl)pyridin-2-yl)-1,2,4-thiadiazol-5-amine], the IC50 is under 0.2 µM.

As for `c1ccc(-c2ccnc(Nc3nc(-c4ccccn4)ns3)c2)cc1` [Compound 237, N-(4-phenyl-pyridin-2-yl)-3-(pyridin-2-yl)-1,2,4-thiadiazol-5-amine], the concentration for half-maximal inhibition (IC50) was in the range of 0.2 to 0.5 µM.

As for `COc1cccnc1Nc1nc(-c2ccc(OC3CC(F)(F)C3)cn2)ns1` [Compound 137, 3-(5-(3,3-difluorocyclo-butoxy)pyridin-2-yl)-N-(3-methoxypyridin-2-yl)-1,2,4-thiadiazol-5-amine], the IC50 was in the range of 0.5 to 5 µM.

As for `CC(C)c1cccnc1Nc1nc(-c2ccc(OC3CCN(C4CC4)CC3(F)F)cn2)ns1` (stereo not drawn) [Compound 87, 3-(5-(1-cyclo-propyl-3,3-difluoro-piperidin-4-yloxy)pyridin-2-yl)-N-(3-isopropylpyridin-2-yl)-1,2,4-thiadiazol-5-amine], the IC50 was in the range of 0.2 to 0.5 µM.

As for `CC(C)c1cnc(Nc2nc(-c3ncccc3OC3CC3)ns2)cc1C(F)(F)F` [Compound 97, 3-(3-cycloprop-oxypyridin-2-yl)-N-(5-isopropyl-4-(trifluoromethyl)pyridin-2-yl)-1,2,4-thiadiazol-5-amine], the IC50 was under 0.2 µM.

As to `CC(=O)N(C)c1cccnc1Nc1nc(-c2cc3c(cn2)N(C(C)C)CC3)ns1` [Compound 206, N-(2-(3-(1-isopropyl-2,3-dihydro-1H-pyrrolo[2,3-c]pyridin-5-yl)-1,2,4-thiadiazol-5-ylamino)pyridin-3-yl)-N-methylacetamide], the IC50 is under 0.2 µM.

On to `COC(=O)c1cc(-c2nsc(Nc3ncccc3C)n2)ncc1OC(C)C` [Compound 196, methyl 5-isopropoxy-2-(5-(3-methylpyridin-2-ylamino)-1,2,4-thiadiazol-3-yl)isonicotinate], for which the IC50 was in the range of 0.2 to 0.5 µM.

For `CC(C)Oc1ccc(-c2nsc(Nc3ncccc3C(=O)N(C)C3CC3)n2)nc1` [Compound 262, N-cyclo-propyl-2-(3-(5-isopropoxy-pyridin-2-yl)-1,2,4-thiadiazol-5-ylamino)-N-methyl-nicotinamide], the IC50 lay in the range of 0.2 to 0.5 µM.

Regarding `Cc1cccnc1Nc1nc(-c2ccc(OC3CC3)cn2)ns1` [Compound 38, 3-(5-cyclo-propoxypyridin-2-yl)-N-(3-methyl-pyridin-2-yl)-1,2,4-thiadiazol-5-amine], the IC50 is 0.2 to 0.5 µM.

For the compound `CC(=O)N(C)c1cc(C(F)(F)F)cnc1Nc1nc(-c2cc3c(cn2)N(C)CC3)ns1` [Compound 249, N-methyl-N-(2-(3-(1-methyl-2,3-dihydro-1H-pyrrolo[2,3-c]pyridin-5-yl)-1,2,4-thiadiazol-5-ylamino)-5-(trifluoromethyl)pyridin-3-yl)acetamide], the IC50 was under 0.2 µM.

For the compound `CCOc1cnc(-c2nsc(Nc3ncccc3N(C)C(C)=O)n2)cc1C(F)(F)F` [Compound 228, N-(2-(3-(5-ethoxy-4-(trifluoro-methyl)pyridin-2-yl)-1,2,4-thiadiazol-5-ylamino)pyridin-3-yl)-N-methyl-acetamide], the IC50 was 0.5 to 5 µM.

Regarding `COc1ccnc(-c2nsc(Nc3cc(C(F)(F)F)c(C(C)C)cn3)n2)c1` [Compound 182, N-(5-iso-propyl-4-(trifluoro-methyl)pyridin-2-yl)-3-(4-methoxy-pyridin-2-yl)-1,2,4-thiadiazol-5-amine], the half-inhibitory concentration (IC50) is under 0.2 µM.

Consider `CNc1cccnc1Nc1nc(-c2cc(C)ccn2)ns1` [Compound 23, N3-methyl-N2-(3-(4-methylpyridin-2-yl)-1,2,4-thiadiazol-5-yl) pyridine-2,3-diamine], for which the IC50 was in the range of 0.2 to 0.5 µM.

On to `CC(=O)N(C)c1cccnc1Nc1nc(-c2cc(C)ccn2)ns1` [Compound 208, N-methyl-N-(2-(3-(4-methylpyridin-2-yl)-1,2,4-thiadiazol-5-ylamino)pyridin-3-yl)acetamide], for which the IC50 was 0.5 to 5 µM.

`FC(F)(F)c1cncc(Nc2nc(-c3ccccn3)ns2)c1` [Cmpd 3, 3-(pyridin-2-yl)-N-(5-(trifluoromethyl)pyridin-3-yl)-1,2,4-thiadiazol-5-amine]: the IC50 is 0.5 to 5 µM.

In the case of `COc1ccc(-c2nsc(Nc3ccc(OC(C)C)cn3)n2)nc1` [Compound 215, N-(5-isoprop-oxypyridin-2-yl)-3-(5-methoxy-pyridin-2-yl)-1,2,4-thiadiazol-5-amine], the IC50 fell in the range of 0.5 to 5 µM.

With `Cc1cccnc1Nc1nc(-c2cc(OC3CC3)ccn2)ns1` [Compound 65, 3-(4-cycloprop-oxypyridin-2-yl)-N-(3-methyl-pyridin-2-yl)-1,2,4-thiadiazol-5-amine], the IC50 was under 0.2 µM.

As to `CC(C)c1cccnc1Nc1nc(-c2ccc(O[C@@H]3CCN(C4CC4)C[C@@H]3F)cn2)ns1` [Compound 89, 3-(5-((3S,4R)-1-cyclopropyl-3-fluoro-piperidin-4-yloxy)pyridin-2-yl)-N-(3-isopropylpyridin-2-yl)-1,2,4-thiadiazol-5-amine], the IC50 was under 0.2 µM.

Turning to `FC(F)(F)c1cccnc1Nc1nc(-c2cc(C3CC3)ccn2)ns1` [Compound 84, 3-(4-cyclopropyl-pyridin-2-yl)-N-(3-(trifluoromethyl)pyridin-2-yl)-1,2,4-thiadiazol-5-amine], the IC50 was under 0.2 µM.

With `CN(C)c1cccnc1Nc1nc(-c2ccc(OC(F)F)cn2)ns1` [Compound 120, N2-(3-(5-(difluoromethoxy)pyridin-2-yl)-1,2,4-thiadiazol-5-yl)-N3,N3-dimethyl-pyridine-2,3-diamine], the IC50 was 0.5 to 5 µM.

Consider `c1ccc(-c2ccnc(Nc3nc(-c4ccccn4)no3)c2)cc1` [Compound 246, N-(4-phenyl-pyridin-2-yl)-3-(pyridin-2-yl)-1,2,4-oxadiazol-5-amine], for which the IC50 was 0.5 to 5 µM.

For the compound `CC(C)Oc1ccc(-c2nsc(Nc3ncccc3N(C)C)n2)nn1` [Compound 155, N2-(3-(6-isopropoxy-pyridazin-3-yl)-1,2,4-thiadiazol-5-yl)-N3,N3-dimethyl-pyridine-2,3-diamine], the half-inhibitory concentration (IC50) lay within 0.5 to 5 µM.

As for `Cc1cnc(Nc2nc(-c3cc(OC4COC4)ccn3)ns2)c(C(F)(F)F)c1` [Compound 275, N-(5-methyl-3-(trifluoromethyl)pyridin-2-yl)-3-(4-(oxetan-3-yloxy)pyridin-2-yl)-1,2,4-thiadiazol-5-amine], the IC50 is under 0.2 µM.

As for `COC(=O)c1cccnc1Nc1nc(-c2ccc(OC(C)C)cn2)ns1` [Compound 276, methyl 2-(3-(5-isopropoxy-pyridin-2-yl)-1,2,4-thiadiazol-5-ylamino) nicotinate], the IC50 lay within 0.5 to 5 µM.

Turning to `CC(C)Oc1ccc(-c2nsc(Nc3ncccc3N(C)C)n2)nc1` [Compound 56, N2-(3-(5-isoprop-oxypyridin-2-yl)-1,2,4-thiadiazol-5-yl)-N3,N3 - dimethyl-pyridine-2,3-diamine], the IC50 was 0.2 to 0.5 µM.

For `CN1CCC(Oc2ccc(-c3nsc(Nc4ncccc4C(F)(F)F)n3)nc2)CC1` [Compound 55, 3-(5-(1-methyl-piperidin-4-yloxy)pyridin-2-yl)-N-(3-(trifluoromethyl)pyridin-2-yl)-1,2,4-thiadiazol-5-amine], the IC50 lay in the range of 0.5 to 5 µM.

As for `Cc1nccnc1Nc1nc(-c2ccc(OC(C)C)cn2)ns1` [Compound 135, 3-(5-isoprop-oxypyridin-2-yl)-N-(3-methyl-pyrazin-2-yl)-1,2,4-thia-diazol-5-amine], the IC50 lay in the range of 0.2 to 0.5 µM.

For the compound `CC(C)Oc1ccc(-c2nsc(Nc3ncccc3N3CCCC3=O)n2)nc1` [Compound 178, 1-(2-(3-(5-isopropoxy-pyridin-2-yl)-1,2,4-thiadiazol-5-ylamino)pyridin-3-yl)pyrrolidin-2-one], the IC50 is 0.5 to 5 µM.
